In patent US9062313B2, “Gem-difluorinated C-isopropylgalactoside derivates” (TFCHEM, priority 2011, dated 2015):

What was measured:
[1] = tested on: β-galactosidase expression (lacZ promoter); test: Induction of β-galactosidase expression in E. coli (ONPG assay, OD420nm); format: cell-based, Escherichia coli; settings: for effectiveness as inducer compared with IBCG / effectiveness as inducer compared with IPTG: during 3 h following the substrate addition; for induction of β-galactosidase expression/transcription: inducer 0.5 mM, until 3 hours after addition of ONPG substrate; for efficacy of induction overtime: up to 8 h following substrate addition
Protocol: (§1) The bacteria strain E. coli XL1—Blue MRF′ Electroporation-competent cells (Stratagene #200158) containing pGEM-T vector was grown in LB medium adding with appropriate antibiotic (ampicillin). The starter culture was grown by inoculating plasmid containing cells in LB medium added with ampicillin and incubated overnight at 37° C. with shaking at 250 rpm. When culture reached the desired OD, the induction was started.
For each assay the starter culture was appropriately diluted (OD600=0.2) in 1.5 mL of LB medium with 3 μg/mL of ampicillin
β-galactosidase expression is then induced by addition of either IPTG (Sigma I1284), IBCG or Compounds T-16 and T-18 to final concentrations of 0.5 or 1 mM. After this induction the cultures are incubated for 3 hours at 37° C. with shaking at 250 rpm.
The β-galactosidase activity was assayed by adding 0.5 mg/mL of the ortho 2-nitrophenyl-β-D-galactopyranoside (ONPG Sigma N1127) as chromogenic substrate. ONPG is hydrolyzed by β-galactosidase to yield galactose and ortho-Nitrophenol, which is yellow in color and absorbs light at 420 nm. The intensity of the color can be used to determine the β-galactosidase activity.
Absorbance was measured (OD420nm) every hour during 8 hours after the substrate addition. The absorbance was plotted as a function of time representing the induction kinetic of β-galactosidase activity for each inducer and each concentration tested. Assays were performed as triplicate.

[2] = Stability of compounds in D2O solution at room temperature, followed by 19F NMR and 1H NMR; format: physicochemical
Protocol: Compounds T-16 and T-18 were dissolved in D2O and the resulting solutions were kept at room temperature. The stability of the compound was studied by ^19F NMR and ^1H NMR.

E. coli culture = test: Toxicity to bacteria (absorbance of bacteria culture, OD600nm); format: cell-based, Escherichia coli; settings: 0.5 mM; for toxicity throughout the assay: 8 hours, versus negative control without inducer
Protocol: as §1
The absorbance of the bacteria culture was measured (OD600nm) every hour during 8 hours after the substrate addition. The absorbance was plotted as a function of time representing the toxicity for each inducer. The negative control (no toxicity) consists on an assay without inducer. Assays were performed as triplicate.

[3] = tested on: expression of Green Fluorescent Protein UV (GFPuv) in BLR(DE3) E. coli; test: Recombinant GFPuv protein production, total and soluble fractions (SDS-PAGE densitometry); format: cell-based, Escherichia coli; settings: inducer 0.1 mM, 0.05 mM and 0.01 mM
Protocol: Properties: MW: 27 763 Da. Theoretical pI: 6.13—Theoretical Absorption coefficient: 0.788—Number of Cys: 2 Construction of One Expression Strain: • Construct GFPUV-pET30b/3 was transformed into BLR(DE3) E. coli expression strain. • Cultures were performed from one single colony in a semi-defined Riesenberg medium in order to produce a Research Cell Bank (20 tubes of 1 mL stored at <−70° C.). Pre-cultures and Cultures Conditions: • Pre-cultures and cultures were performed in semi-defined Riesenberg medium, 50 mL and 250 mL flasks-scale, respectively. […] Analysis by SDS-PAGE Stained by Coomassie Blue • Sample: 10 μl deposit of suspension at equivalent OD600nm=8. • The proteins were separated by SDS-PAGE 4-12%, and then colored by Coomassie blue. • Quantitative measurement by densitometry and comparison with standard range of proteins.
Quantity of proteins (μg) was plotted as a function of time representing the kinetic of induction of GFPuv expression for each inducer and/or concentration tested.
The induction profile of GFPuv was evaluated for both IPTG and T-18 inducers at different concentrations. […]

Structure (SMILES)	effectiveness as inducer compared with IBCG ([1]; 0.5 mM)	effectiveness as inducer compared with IPTG ([1]; 0.5 mM)	induction of β-galactosidase expression/transcription [1]	degradation in solution (stability by 19F NMR and 1H NMR) ([2]; 10 weeks follow up)	toxicity throughout the assay (E. coli culture)	effectiveness relative to IPTG ([1]; 0.5 mM, 8 h following substrate addition)	efficacy of induction overtime ([1]; 0.5 mM)	final quantity of GFPuv produced (total fraction) compared with IPTG [3]	degradation in solution (stability by 19F NMR and 1H NMR) ([2]; 24 weeks follow up)	toxicity compared with IPTG (E. coli culture; after 3 h up to 8 h following the substrate addition)	toxicity compared with IPTG (E. coli culture; until 3 h following the substrate addition)
CC(C)(O)C(F)(F)[C@@H]1O[C@H](CO)[C@H](O)[C@H](O)[C@H]1O [Compound T-16]	more effective inducers than IBCG	as effective inducers than IPTG	efficient inducers	without any degradation	medium toxicity	–	–	–	–	–	–
CC(C)C(F)(F)[C@@H]1O[C@H](CO)[C@H](O)[C@H](O)[C@H]1O [Compound T-18]	more effective inducers than IBCG	as effective inducers than IPTG	efficient inducers	–	–	at least 3 times	remains effective overtime	higher than with IPTG	without any degradation	less toxic than IPTG	as toxic as IPTG
CC(C)S[C@@H]1O[C@H](CO)[C@H](O)[C@H](O)[C@H]1O [IPTG, isopropyl-β-D -thiogalactopyranoside, reference compound]	–	–	–	–	medium toxicity	–	efficacy decrease	–	–	–	–
